Marks after values point to notes of the source that are not given here.
Tests used:
Type in all cases: in vivo
Echinochloa crus-galli [1] = assay: greenhouse post-emergence treatment, ECHCG; conditions: scale 0-100
Source text: (§1) The culture containers used were plastic flowerpots containing loamy sand with approximately 3.0% of humus as the substrate. The seeds of the test plants were sown separately for each species.
(§2) For the post-emergence treatment, the test plants were first grown to a height of 3 to 15 cm, depending on the plant habit, and only then treated with the active ingredients which had been suspended or emulsified in water. For this purpose, the test plants were either sown directly and grown in the same containers, or they were first grown separately as seedlings and transplanted into the test containers a few days prior to treatment.
(§3) Depending on the species, the plants were kept at 10-25° C. or 20-35° C. The test period extended over 2 to 4 weeks. During this time, the plants were tended, and their response to the individual treatments was evaluated.
(§4) Evaluation was carried out using a scale from 0 to 100. 100 means no emergence of the plants, or complete destruction of at least the aerial moieties, and 0 means no damage, or normal course of growth. A good herbicidal activity is given at values of at least 70 and a very good herbicidal activity is given at values of at least 85.
(§5) The plants used in the greenhouse experiments belonged to the following species:
(§6) Following representative compounds of formula I according to Table 9 were used in post-emergence treatments in greenhouse experiments (values labeled with * result from pre-emergence experiments): […]

Chenopodium album = assay: greenhouse post-emergence treatment, CHEAL; conditions: scale 0-100
Source text: as §1, §2, §3, §4, §5, §6

Amaranthus retroflexus [2] = assay: greenhouse post-emergence treatment, AMARE; conditions: scale 0-100
Source text: as §1, §2, §3, §4, §5, §6

Agrostis spica-venti = assay: greenhouse pre-emergence treatment, APESV; conditions: pre-emergence (value labeled *), scale 0-100
Source text: as §1
(§7) For the pre-emergence treatment, the active ingredients, which had been suspended or emulsified in water, were applied directly after sowing by means of finely distributing nozzles. The containers were irrigated gently to promote germination and growth and subsequently covered with transparent plastic hoods until the plants had rooted. This cover caused uniform germination of the test plants, unless this has been impaired by the active ingredients.
as §3, §4, §5, §6

Amaranthus retroflexus [3] = assay: greenhouse pre-emergence treatment, AMARE; conditions: pre-emergence (value labeled *), scale 0-100
Source text: as §1, §7, §3, §4, §5, §6

Polygonum convolvulus = assay: greenhouse post-emergence treatment, POLCO; conditions: scale 0-100
Source text: as §1, §2, §3, §4, §5, §6

Abutilon theophrasti [4] = assay: greenhouse post-emergence treatment, ABUTH; conditions: 1000 g/ha, scale 0-100
Source text: as §1, §2, §3, §4
(§8) The plants used in the greenhouse experiments belonged to the following species: […]

Abutilon theophrasti [5] = assay: greenhouse pre-emergence treatment, ABUTH; conditions: pre-emergence (value labeled *), scale 0-100
Source text: as §1, §7, §3, §4, §5, §6

Echinochloa crus-galli [6] = assay: greenhouse pre-emergence treatment, ECHCG; conditions: pre-emergence (value labeled *), 250 g/ha; scale 0-100
Source text: as §1, §7, §3, §4, §8

Setaria viridis = assay: greenhouse post-emergence treatment, SETVI; conditions: 250 g/ha, scale 0-100
Source text: as §1, §2, §3, §4, §8

Alopecurus agrestis = assay: greenhouse post-emergence treatment, ALOMY; conditions: 250 g/ha, scale 0-100
Source text: as §1, §2, §3, §4, §8

SMILES: CCCn1ncnc1NC(=O)c1c(F)cc(Cl)c(SC)c1Cl [compound 62]
- [%] damage to weed VII (ECHCG) (Echinochloa crus-galli [1]; 250 g/ha): 98%
- [%] damage to weed VI (CHEAL) (Chenopodium album; 250 g/ha): 100%
- [%] damage to weed III (AMARE) (Amaranthus retroflexus [2]; 250 g/ha): 100%
- [%] damage to weed IV (APESV) (Agrostis spica-venti; 250 g/ha): 80* %

SMILES: CCOc1c(Cl)cc(F)c(C(=O)Nc2nnnn2CC)c1Cl [compound 63]
- [%] damage to weed VI (CHEAL) (Chenopodium album; 500 g/ha): 100%
- [%] damage to weed III (AMARE) (Amaranthus retroflexus [2]; 500 g/ha): 100; %
- [%] damage to weed III (AMARE) (Amaranthus retroflexus [3]; 500 g/ha): 100* %
- [%] damage to weed IX (POLCO) (Polygonum convolvulus; 500 g/ha): 98%

SMILES: Cc1c(C(=O)Nc2nnnn2C)cc(F)c(S(C)(=O)=O)c1S(C)(=O)=O [compound 66]
- [%] damage to weed VII (ECHCG) (Echinochloa crus-galli [1]; 1000 g/ha): 100%
- [%] damage to weed III (AMARE) (Amaranthus retroflexus [2]; 1000 g/ha): 100; %
- [%] damage to weed I (ABUTH) (Abutilon theophrasti [4]): 100%
- [%] damage to weed III (AMARE) (Amaranthus retroflexus [3]; 1000 g/ha): 100* %

SMILES: CSc1c(F)cc(C(=O)Nc2nnnn2C)c(C)c1SC [compound 67]
- [%] damage to weed VII (ECHCG) (Echinochloa crus-galli [1]; 1000 g/ha): 100%
- [%] damage to weed I (ABUTH) (Abutilon theophrasti [4]): 100%

SMILES: COCCOc1c(Cl)cc(F)c(C(=O)Nc2ncnn2C)c1Cl [compound 69]
- [%] damage to weed VI (CHEAL) (Chenopodium album; 250 g/ha): 100%
- [%] damage to weed III (AMARE) (Amaranthus retroflexus [2]; 250 g/ha): 98%
- [%] damage to weed I (ABUTH) (Abutilon theophrasti [5]; 250 g/ha): 100* %
- [%] damage to weed IX (POLCO) (Polygonum convolvulus; 250 g/ha): 98%

SMILES: COCCn1nnnc1NC(=O)c1c(F)cc(Cl)c(S(C)(=O)=O)c1Cl [compound 76]
- [%] damage to weed VII (ECHCG) (Echinochloa crus-galli [1]; 250 g/ha): 100; %
- [%] damage to weed VI (CHEAL) (Chenopodium album; 250 g/ha): 100%
- [%] damage to weed III (AMARE) (Amaranthus retroflexus [2]; 250 g/ha): 100%
- [%] damage to weed VII (ECHCG) (Echinochloa crus-galli [6]): 100* %

SMILES: CCS(=O)(=O)c1c(Cl)cc(F)c(C(=O)Nc2nnnn2CCOC)c1Cl [compound 80]
- [%] damage to weed VII (ECHCG) (Echinochloa crus-galli [1]; 125 g/ha): 100%
- [%] damage to weed VI (CHEAL) (Chenopodium album; 125 g/ha): 100%
- [%] damage to weed III (AMARE) (Amaranthus retroflexus [2]; 125 g/ha): 100%
- [%] damage to weed I (ABUTH) (Abutilon theophrasti [5]; 125 g/ha): 100* %

SMILES: CSc1ccc(Cl)c(C(=O)Nc2ncnn2C)c1Cl [compound 81]
- [%] damage to weed VII (ECHCG) (Echinochloa crus-galli [1]; 250 g/ha): 98%
- [%] damage to weed VI (CHEAL) (Chenopodium album; 250 g/ha): 100%
- [%] damage to weed III (AMARE) (Amaranthus retroflexus [2]; 250 g/ha): 100%
- [%] damage to weed IV (APESV) (Agrostis spica-venti; 250 g/ha): 95* %

SMILES: COCCOc1ccc(Cl)c(C(=O)Nc2nnnn2C)c1Cl [compound 86]
- [%] damage to weed VII (ECHCG) (Echinochloa crus-galli [1]; 500 g/ha): 98%
- [%] damage to weed VI (CHEAL) (Chenopodium album; 500 g/ha): 100%
- [%] damage to weed III (AMARE) (Amaranthus retroflexus [2]; 500 g/ha): 100%
- [%] damage to weed I (ABUTH) (Abutilon theophrasti [5]; 500 g/ha): 65* %
- [%] damage to weed IV (APESV) (Agrostis spica-venti; 500 g/ha): 98* %

SMILES: CSc1c(F)cc(Cl)c(C(=O)Nc2ncnn2C)c1F [compound 94]
- [%] damage to weed VII (ECHCG) (Echinochloa crus-galli [1]; 250 g/ha): 95%
- [%] damage to weed VI (CHEAL) (Chenopodium album; 250 g/ha): 100%
- [%] damage to weed III (AMARE) (Amaranthus retroflexus [2]; 250 g/ha): 100%
- [%] damage to weed IV (APESV) (Agrostis spica-venti; 250 g/ha): 90* %

SMILES: Cn1nnnc1NC(=O)c1c(F)cc(Cl)c([S+](C)[O-])c1Cl (stereo not drawn) [cpd. 6]
- [%] damage to weed VI (CHEAL) (Chenopodium album; 250 g/ha): 100%
- [%] damage to weed XI (SETVI) (Setaria viridis): 100%
- [%] damage to weed II (ALOMY) (Alopecurus agrestis): 100%

From US20160108008A1, “Substituted N-(Tetrazol-5-yl)- and N-(Triazol-5-yl)arylcarboxamide Compounds and Their Use as Herbicides” (BASF SE, priority 2013, published 2016)
